The values that follow come from ChEMBL document CHEMBL1201862, “PubChem BioAssay data set” (2004).

The target in test [1] is T1, G-protein coupled receptor 55 (Homo sapiens, UniProt Q9Y2T6). The test can be described thus: GPR55 antagonists blocking LPI-driven arrestin recruitment, primary screen, imaging, U2OS, beta-arrestin-GFP, LPI agonist (AID 2013).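 Note: antagonist potency measured as reduced agonist-driven arrestin aggregation.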 The class given is functional. For orientation: Arrestin recruitment assays detect the binding of arrestin to an activated receptor.
T1 sequence (Q9Y2T6 whole entry): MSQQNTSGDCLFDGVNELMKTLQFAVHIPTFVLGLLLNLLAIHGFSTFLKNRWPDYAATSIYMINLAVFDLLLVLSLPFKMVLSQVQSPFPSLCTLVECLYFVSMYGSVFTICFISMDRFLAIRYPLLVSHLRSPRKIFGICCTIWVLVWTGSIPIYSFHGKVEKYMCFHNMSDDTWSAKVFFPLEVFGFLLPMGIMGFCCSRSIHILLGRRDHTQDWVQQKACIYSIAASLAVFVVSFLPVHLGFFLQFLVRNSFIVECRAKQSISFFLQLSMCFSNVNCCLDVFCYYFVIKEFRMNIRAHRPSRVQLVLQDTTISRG
The target in test [2] is T2, Cannabinoid receptor 1 (Homo sapiens, UniProt P21554). The experiment in a line: SAR analysis of antagonists of the Cannabinoid Receptor 1 using an Image-Based Assay - Set 2. [Related pubchem assays (depositor defined):AID2013, AID2026]. The format is functional.
T2 sequence (P21554 whole entry): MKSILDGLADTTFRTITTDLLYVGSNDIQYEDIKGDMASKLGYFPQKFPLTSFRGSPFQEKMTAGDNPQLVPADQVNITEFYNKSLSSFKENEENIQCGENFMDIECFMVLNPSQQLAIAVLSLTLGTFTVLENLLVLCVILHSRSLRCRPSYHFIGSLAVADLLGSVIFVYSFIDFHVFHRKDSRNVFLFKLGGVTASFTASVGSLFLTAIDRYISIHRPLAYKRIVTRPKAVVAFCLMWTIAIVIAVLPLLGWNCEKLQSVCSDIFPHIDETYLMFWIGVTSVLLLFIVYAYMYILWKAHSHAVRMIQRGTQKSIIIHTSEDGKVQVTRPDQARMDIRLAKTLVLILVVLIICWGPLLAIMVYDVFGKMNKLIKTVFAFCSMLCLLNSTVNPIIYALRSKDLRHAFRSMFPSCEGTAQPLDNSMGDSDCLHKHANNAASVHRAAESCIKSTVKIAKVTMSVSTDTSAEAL
In test [3] the target is T3, G-protein coupled receptor 35 (Homo sapiens, UniProt Q9HC97). The test can be described thus: SAR analysis of Agonists of the GPR35 Receptor using an Image-Based Assay - Set 2. [Related pubchem assays (depositor defined):AID2013, AID2026]. The class given is functional.
T3 sequence (Q9HC97 whole entry): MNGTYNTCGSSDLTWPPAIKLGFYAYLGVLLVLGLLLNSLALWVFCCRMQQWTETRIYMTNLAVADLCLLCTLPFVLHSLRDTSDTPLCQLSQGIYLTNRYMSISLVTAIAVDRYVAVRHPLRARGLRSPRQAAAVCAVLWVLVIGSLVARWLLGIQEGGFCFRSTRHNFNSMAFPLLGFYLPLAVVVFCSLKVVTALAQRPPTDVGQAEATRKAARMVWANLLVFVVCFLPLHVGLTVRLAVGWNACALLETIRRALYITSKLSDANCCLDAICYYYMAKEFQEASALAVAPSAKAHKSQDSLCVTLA
Test [4] addresses T4, Cannabinoid receptor 2 (Homo sapiens, UniProt P34972). The test can be described thus: SAR analysis of antagonists of the Cannabinoid Receptor 2 using an Image-Based Assay. [Related pubchem assays (depositor defined):AID2013, AID2026]. The class given is functional.
Test [5] has as its target T2, Cannabinoid receptor 1. The experiment in a line: SAR analysis of agonists of the Cannabinoid Receptor 1 using an Image-Based Assay - Set 2. [Related pubchem assays (depositor defined):AID2013, AID2026]. The class given is functional.
The target of test [6] is T3, G-protein coupled receptor 35. The experiment in a line: SAR analysis of Antagonists of the GPR35 Receptor using an Image-Based Assay - Set 3. [Related pubchem assays (depositor defined):AID2013, AID2026]. The class given is functional.
Test [7] addresses T1, G-protein coupled receptor 55. The experiment in a line: GPR55 antagonist potency of analogs, SAR follow-up, imaging, U2OS, beta-arrestin-GFP, LPI agonist, set 2 (AID 2820). The format is functional.
The target of test [8] is T4, Cannabinoid receptor 2. The experiment in a line: SAR analysis of agonists of the Cannabinoid Receptor 2 using an Image-Based Assay. [Related pubchem assays (depositor defined):AID2013, AID2026]. The class given is functional.
Test [9] has as its target T5, Corticotropin-releasing factor receptor 2/Corticotropin-releasing factor-binding protein (Homo sapiens, UniProt P24387+Q13324).
T5 sequence (Q13324 whole entry): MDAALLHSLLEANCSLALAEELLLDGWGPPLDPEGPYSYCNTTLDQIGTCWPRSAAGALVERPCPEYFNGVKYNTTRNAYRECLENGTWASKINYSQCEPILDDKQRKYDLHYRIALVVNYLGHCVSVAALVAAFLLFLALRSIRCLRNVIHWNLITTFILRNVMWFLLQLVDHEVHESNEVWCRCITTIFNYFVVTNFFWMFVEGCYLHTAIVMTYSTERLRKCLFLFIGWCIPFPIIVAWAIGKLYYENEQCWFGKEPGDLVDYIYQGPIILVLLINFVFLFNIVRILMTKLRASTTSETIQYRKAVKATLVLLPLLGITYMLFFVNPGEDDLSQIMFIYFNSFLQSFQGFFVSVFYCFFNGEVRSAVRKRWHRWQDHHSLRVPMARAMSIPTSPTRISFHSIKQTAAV
T5 sequence (P24387 whole entry): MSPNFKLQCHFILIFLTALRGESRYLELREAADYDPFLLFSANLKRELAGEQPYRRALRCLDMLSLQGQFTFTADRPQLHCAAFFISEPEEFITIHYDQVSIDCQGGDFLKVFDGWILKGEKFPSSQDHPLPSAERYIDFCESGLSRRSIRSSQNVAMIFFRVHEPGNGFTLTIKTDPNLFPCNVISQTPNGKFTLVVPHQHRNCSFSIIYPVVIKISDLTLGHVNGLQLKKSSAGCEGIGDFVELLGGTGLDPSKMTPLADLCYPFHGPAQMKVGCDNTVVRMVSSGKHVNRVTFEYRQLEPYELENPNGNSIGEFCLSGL
The experiment in a line: Dose Response confirmation of uHTS hits for small molecule antagonists of the CRF-binding protein and CRF-R2 receptor complex. The class given is functional. The note with it: read-out: IC50_Mean.

Test [10] concerns the target T5, Corticotropin-releasing factor receptor 2/Corticotropin-releasing factor-binding protein. The experiment in a line: activators of CRF receptor 2 with binding protein – uHTS hits, confirmation (AID 602473). The format is functional. The note with it: read-out: EC50_Mean.
A short description of test [11]: cells. The format is functional, cell-based.
Test [12] deals with Luciferin 4-monooxygenase (Photinus pyralis, UniProt P08659). The experiment in a line: firefly luciferase enzyme inhibitors, dose response, biochemical, luminescence (AID 1891).
Chain of Luciferin 4-monooxygenase (P08659 whole entry): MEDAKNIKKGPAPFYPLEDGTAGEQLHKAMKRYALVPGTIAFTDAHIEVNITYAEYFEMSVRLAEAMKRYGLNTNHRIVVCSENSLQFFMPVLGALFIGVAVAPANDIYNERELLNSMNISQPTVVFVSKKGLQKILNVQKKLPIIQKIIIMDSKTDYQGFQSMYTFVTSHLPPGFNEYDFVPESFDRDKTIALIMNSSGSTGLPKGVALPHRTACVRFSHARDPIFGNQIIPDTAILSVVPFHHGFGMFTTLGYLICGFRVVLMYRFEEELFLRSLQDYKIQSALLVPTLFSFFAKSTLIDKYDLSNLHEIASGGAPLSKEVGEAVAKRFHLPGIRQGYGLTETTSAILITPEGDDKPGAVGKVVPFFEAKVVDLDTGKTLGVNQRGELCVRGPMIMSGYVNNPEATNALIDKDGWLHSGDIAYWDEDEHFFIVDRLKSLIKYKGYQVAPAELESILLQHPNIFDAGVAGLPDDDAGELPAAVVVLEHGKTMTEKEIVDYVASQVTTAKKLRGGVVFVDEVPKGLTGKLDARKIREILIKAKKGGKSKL
Test [13] can be described thus: Luminescence Cell-Based Dose Confirmation HTS to Identify Inhibitors of Platelet Dense Granule Release. [Related pubchem assays: 1663 (Primary HTS), 1678 (Summary of Project)]. The class given is functional.
Test [14] is described as follows: cells. The class given is functional, cell-based. This is another data set of the same source.
The nature of test [15]: THP-1 cell cytotoxicity, dose response, cytotoxicity control for non-replicating M. tuberculosis project (AID 489025). The class given is functional.
Test [16] can be described thus: HepG2 cell cytotoxicity, dose response, cytotoxicity control for non-replicating M. tuberculosis project (AID 489018). The note with it: Mycobacterium tuberculosis. The format is functional.
Test [17] in a line: Vero E6 cell cytotoxicity, dose response, cytotoxicity control for non-replicating M. tuberculosis project, secondary assay (AID 492998). The note with it: Vero C1008. The format is functional, VeroE6.
The test system of another test is INS1. The test can be described thus: beta cell apoptosis inhibitors, cytokine rescue, dose response, luminescence, retest (AID 449756).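 Note: cell death triggered by IL-1 beta plus TNF-alpha plus IFN-gamma mixture; protective hits raise ATP signal compared with cytokine alone wells.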 The class given is functional, cell-based. The note with it: Rattus norvegicus.
Test [18] addresses T6, Microphthalmia-associated transcription factor (Homo sapiens, UniProt O75030).
T6 sequence (O75030 whole entry): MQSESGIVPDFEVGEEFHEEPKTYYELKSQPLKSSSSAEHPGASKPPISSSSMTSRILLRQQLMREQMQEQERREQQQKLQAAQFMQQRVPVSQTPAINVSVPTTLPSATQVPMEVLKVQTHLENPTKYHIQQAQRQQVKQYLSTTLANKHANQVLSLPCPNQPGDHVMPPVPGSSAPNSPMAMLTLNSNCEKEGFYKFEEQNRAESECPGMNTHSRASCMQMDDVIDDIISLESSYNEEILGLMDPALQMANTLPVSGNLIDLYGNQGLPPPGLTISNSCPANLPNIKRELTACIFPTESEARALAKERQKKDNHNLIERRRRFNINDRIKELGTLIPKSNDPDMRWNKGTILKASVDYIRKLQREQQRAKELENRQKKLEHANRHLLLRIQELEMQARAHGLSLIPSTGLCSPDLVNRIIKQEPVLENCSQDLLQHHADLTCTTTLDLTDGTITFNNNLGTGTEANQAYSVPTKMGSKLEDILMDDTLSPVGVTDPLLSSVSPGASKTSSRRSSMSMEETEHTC
The experiment in a line: TRPM1 promoter luciferase signal decrease, dose response, MITF inhibitor project, cell-based, SK-MEL-5, cherry-picked, set 3 (AID 493073).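 Note: SK-MEL-5 melanoma cells with luciferase driven by the MITF target TRPM1 promoter.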 The format is functional.

The nature of test [19]: cells. The class given is functional.
In test [20] the test system is Streptococcus sp. 'group A'. The experiment in a line: growth inhibition of control SK(-) GAS strain, dose response, counter-screen for streptokinase expression inhibitor project, luminescence, kanamycin, BacTiterGlo, confirmation (AID 1900). The class given is functional, organism-based.
The target of a further test is T7, Streptokinase A (Streptococcus pyogenes serotype M1, UniProt P10520).
T7 sequence (P10520 whole entry): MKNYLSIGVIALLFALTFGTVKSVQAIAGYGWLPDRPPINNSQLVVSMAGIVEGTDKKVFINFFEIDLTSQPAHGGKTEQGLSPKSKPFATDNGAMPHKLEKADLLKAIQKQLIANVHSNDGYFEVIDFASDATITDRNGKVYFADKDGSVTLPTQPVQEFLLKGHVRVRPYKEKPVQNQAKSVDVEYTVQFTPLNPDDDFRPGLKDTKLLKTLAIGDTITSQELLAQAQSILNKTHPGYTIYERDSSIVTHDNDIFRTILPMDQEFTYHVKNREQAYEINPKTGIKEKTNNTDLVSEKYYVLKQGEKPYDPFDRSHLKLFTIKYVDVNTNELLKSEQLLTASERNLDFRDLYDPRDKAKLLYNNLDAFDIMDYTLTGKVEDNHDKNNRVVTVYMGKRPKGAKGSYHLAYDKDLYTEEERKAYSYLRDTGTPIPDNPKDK
The test can be described thus: S. pyogenes streptokinase expression inhibitors, potency, dose response, plasminogen activation absorbance, OD405 (AID 1914).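 Note: secreted streptokinase activity via plasminogen activation per viability signal from cell pellet.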 The class given is functional, Streptococcus pyogenes M1 GAS.

Another test has as its system Streptococcus. The experiment in a line: Group A Streptococcus viability loss, dose response, counter-screen for streptokinase expression inhibitor project, luminescence, BacTiterGlo (AID 1915).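 Note: potency for reduction of bacterial viability or growth.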 The format is functional, organism-based. A general note: Counterscreens check selectivity or assay interference.
The target in test [21] is T8, Short transient receptor potential channel 4 (Mus musculus, UniProt Q9QUQ5).
T8 sequence (Q9QUQ5 whole entry): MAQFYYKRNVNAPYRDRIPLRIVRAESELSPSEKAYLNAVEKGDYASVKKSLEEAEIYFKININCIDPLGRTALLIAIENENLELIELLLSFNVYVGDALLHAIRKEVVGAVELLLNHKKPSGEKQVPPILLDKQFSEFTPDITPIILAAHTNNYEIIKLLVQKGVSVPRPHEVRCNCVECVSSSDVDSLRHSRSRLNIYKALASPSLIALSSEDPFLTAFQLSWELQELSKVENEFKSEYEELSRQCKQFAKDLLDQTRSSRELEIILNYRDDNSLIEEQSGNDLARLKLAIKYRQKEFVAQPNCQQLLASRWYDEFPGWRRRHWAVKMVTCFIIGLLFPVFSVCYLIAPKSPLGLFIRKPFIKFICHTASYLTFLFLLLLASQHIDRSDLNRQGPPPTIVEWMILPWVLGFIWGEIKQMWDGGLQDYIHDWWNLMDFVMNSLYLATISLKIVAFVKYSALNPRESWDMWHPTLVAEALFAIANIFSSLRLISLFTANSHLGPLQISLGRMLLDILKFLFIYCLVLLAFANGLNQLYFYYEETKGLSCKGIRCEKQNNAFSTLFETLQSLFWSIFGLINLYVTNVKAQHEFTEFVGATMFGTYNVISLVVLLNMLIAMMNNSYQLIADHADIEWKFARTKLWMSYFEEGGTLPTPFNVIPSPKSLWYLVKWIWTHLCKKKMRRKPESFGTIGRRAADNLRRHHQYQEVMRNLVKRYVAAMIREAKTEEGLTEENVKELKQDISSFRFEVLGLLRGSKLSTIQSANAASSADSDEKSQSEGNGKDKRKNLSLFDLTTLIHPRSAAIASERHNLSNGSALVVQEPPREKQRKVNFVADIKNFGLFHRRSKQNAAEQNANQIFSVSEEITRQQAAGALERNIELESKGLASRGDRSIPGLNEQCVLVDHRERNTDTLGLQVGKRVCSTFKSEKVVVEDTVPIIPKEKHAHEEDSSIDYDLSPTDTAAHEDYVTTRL
The experiment in a line: mouse TRPC4 channel inhibitors, dose response, cell-based, HEK293 TRPC4/mu-opioid, Fluo-4 calcium (AID 434942).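 Note: potency of inhibitors blocking the TRPC4 calcium response.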 The class given is functional.

Active and inactive are the calls of the source.

T4 sequence (P34972 whole entry): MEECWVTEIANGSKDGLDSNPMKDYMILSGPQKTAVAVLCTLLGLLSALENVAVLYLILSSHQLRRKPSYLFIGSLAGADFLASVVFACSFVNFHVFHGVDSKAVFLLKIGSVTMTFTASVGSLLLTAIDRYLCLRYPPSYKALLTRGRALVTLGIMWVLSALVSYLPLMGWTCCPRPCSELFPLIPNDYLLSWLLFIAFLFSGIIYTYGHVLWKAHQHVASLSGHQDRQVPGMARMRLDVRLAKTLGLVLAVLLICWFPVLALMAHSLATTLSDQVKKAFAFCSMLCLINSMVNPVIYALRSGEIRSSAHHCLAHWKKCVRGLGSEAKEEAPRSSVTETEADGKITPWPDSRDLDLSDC

For the compound `COC(=O)C1=C(N)c2c(F)cccc2C1(C#N)c1ccccc1` (stereo not given), the IC50 in [1] is 2.34 µM (active); on Cannabinoid receptor 1 [2] it was > 32 µM (inactive); at Cannabinoid receptor 2 [4], > 32 µM (inactive); in test [6], > 32 µM (inactive); in test [7] it was 0.928 µM (active); in test [9], > 47.1 µM (inactive). Also, the EC50 in [3] is > 32 µM (inactive); on Cannabinoid receptor 1 [5], > 32 µM (inactive); on Cannabinoid receptor 2 [8] it was > 32 µM (inactive); in [10], > 53 µM (inactive).

What is called CC50 is the concentration giving 50% cytotoxicity. Usually AC50 stands for the midpoint of the concentration-response curve, whichever way the signal moves. `COc1cccc(/C=N/NC(=O)c2ccoc2C)c1O`: the EC50 in the test “cells [11]” is 82.2 µM (active); in test [12], 4.56 µM (active); in test [13] it was 2.09 µM (active); in “cells [14]”, 7.29 µM (active). Moreover, the results for the CC50 in test [15], in [16] and in test [17] were 4.17 µM (active), 6.69 µM (active) and 9.35 µM (active), respectively. Further, the concentration at half-maximal activity (AC50) in the test with INS1 is 3.85 µM (active).

Take `Cc1ccc(NC(=O)c2ccc([N+](=O)[O-])o2)cc1S(=O)(=O)N1CCOCC1`: the half-maximal cytotoxic concentration (CC50) was 6.1 µM (active) in [15], 9.48 µM (active) in [16] and 6.5 µM (active) in test [17]. For the same compound, in test [18], the AC50 is 11.4 µM (active). In addition, the IC50 in “cells [19]” is 18.4 µM (active).

For `COc1ccc(NC(=O)c2cnn3c(O)cc(C4CCN(C(=O)OC(C)(C)C)CC4)nc23)cc1Cl`, the EC50 in test [20] was 3.36 µM (active); on Streptokinase A, > 150 µM (not active); with Streptococcus, 17.8 µM (active); in [3] it was 0.506 µM (active); in test [21], 1.33 µM (active); on Cannabinoid receptor 1 [5], > 32 µM (inactive). Also, the EC50 on Cannabinoid receptor 2 [8] is > 32 µM (inactive). Besides, the IC50 was < 0.5 µM (active) in [1]; > 32 µM (inactive) on Cannabinoid receptor 1 [2]; > 32 µM (inactive) on Cannabinoid receptor 2 [4]; 29.4 µM (inactive) in [6]; 0.422 µM (active) in [7].
